# Assay results reported in patent US20230330111A1, “ACTIVE AGENT COMBINATION FOR TREATMENT OF CANCER” (HELMHOLTZ ZENTRUM MÜNCHEN - DEUTSCHES FORSCHUNGSZENTRUM FÜR …, priority 2020, published 2023).
# Entries after “also recorded” stand apart in the source; their conditions may differ.
# Columns and labels:
# HCT116 cells [1] = experiment: Cell death / ratio of toxicity and viability in HCT116 (monolayer and spheroids); assay type: cell-based; details: for attenuation of cell death induced by NEN drug combinations: HCT116 monolayer or spheroids, ISRIB 1 μM or Cyclodextrin in medium; for cell death / toxicity (ratio of toxicity and viability): HCT116, 2D or 3D spheroids, NEN 1.2 μM, FCCP 2.5 μM, 2-DG 100 mM, Domp, Imi, Desi, Ami 30 μM, Clomi 20 μM
# Experimental: (§1) HCT116, BxPC3 and U87 cell lines were maintained in Dulbecco's modified Eagle's medium (DMEM) (Gibco) supplemented with 10% fetal bovine serum (FBS; Millipore) and Penicilin/Streptomycine (Life Tehnologies), and cultured at 37° C., 5% CO2 and 95 humidity. For spheroid formation, 10000 cells were plated in ultra-low attachment plates (Fisher Scientific), centrifuged at 850 G for 10 min and incubated for 3 days until treatment, with medium change every 3 days.
# (§2) To determine drug induced toxicity in spheroid cultures, the Promega CellToXGreen and RealTime-Glo™ MT Cell Viability kits were used according to the manufacturers protocols. Briefly, Toxicity and viability dyes were mixed with cell culture medium and added prior to drug treatment. Fluorescence and luminescence were measured over the course of 3 days on a Thermo Fisher Varioskan Lux plate reader.
# (§3) For Caspase 3/7 activity and general cytotoxicity in 2D cell culture the Apo One Homogenous Caspase-3/7 Assay and Multitox Fluor assays were employed respectively, according to the manufacturers protocol. Cells were seeded in 96-wells one day prior to treatment and incubated 24-48 h before assaying.
# UPP1 = UPP1 expression (immunoblot, qPCR) in HCT116; assay type: cell-based; details: ISRIB 1 μM with NEN 1.2 μM + Domperidone 30 μM
# Experimental: Cells were lysed at 4° C. in 100 μl of RIPA buffer (Sigma-Aldrich) containing protease (Roche 11697498001) and phosphatase (Roche 04906837001) inhibitors, and sonicated. Cell extracts were centrifuged 14000×RPM for 5 min 4° C. and the supernatant collected to protein concentration determination with BCA protein assay (Pierce 23225). 10-20 μg of total protein were subjected to SDS-PAGE electrophoresis, and after transfer, membranes were blocked (1 h) and incubated overnight at 4° C. with primary antibodies. After secondary antibody incubation for 1 h at room temperature, signals were visualized by Chemidoc Image System (BioRad) and ImageLab software.
# (§4) RNA was isolated using the Qiagen RNAesay kit following the manufacturers protocol and reverse transcribed using the Quantitect reverse transcription kit (Qiagen). cDNA was amplified using the PowerUp SYBRGreen mastermix (LifeTechnologies), the following primers and an Applied Biosystems Quantstudio 6 cycler. RNA expression data were normalized to the level of beta-actin expression.
# BxPC3 cells = experiment: Cell death / ratio of toxicity and viability in BxPC3 (monolayer); assay type: cell-based; details: for cell death / toxicity (ratio of toxicity and viability): BxPC3, NEN 1.2 μM, FCCP 2.5 μM, 2-DG 100 mM, Domp, Imi, Desi, Ami 30 μM, Clomi 20 μM
# Experimental: as §1, §2, §3
# ATF4, CHOP and Gadd34 = experiment: qPCR of ISR genes; assay type: cell-based; details: HCT116; for ISR marker gene expression (ATF4, CHOP, Gadd34 mRNA): NEN 1.2 μM, Domp and TCAs 30 μM, Clomi 20 μM
# Text: as §4, with “RNAesay” left out
# U87 cells = experiment: Cell death / ratio of toxicity and viability in U87 (spheroids); assay type: cell-based; details: for attenuation of cell death induced by NEN drug combinations: U87 spheroids, ISRIB 1 μM or Cyclodextrin 0.75%; for cell death / toxicity (ratio of toxicity and viability): U87, NEN 1.2 μM, FCCP 2.5 μM, 2-DG 100 mM, Domp, Imi, Desi, Ami 30 μM, Clomi 20 μM
# Experimental: as §1, §2, §3
# [2] = test system: preclinical tumor rodent models; details: single drug; background art; cited from earlier work
# HCT116 cells [3] = experiment: Caspase 3/7 activity in HCT116; assay type: cell-based; details: HCT116, 1% serum, NEN 1.2 μM, 18 h
# Text: For Caspase 3/7 activity and general cytotoxicity in 2D cell culture the Apo One Homogenous Caspase-3/7 Assay and Multitox Fluor assays were employed respectively, according to the manufacturers protocol. […]
# [4] = test system: glioblastoma and small-cell lung cancer (SCLC); details: cited from earlier work
# [5] = compared with its analogue Trimipramine; cited from earlier work
# HCT116 cells [6] = experiment: High-throughput phenotypic screen with NEN co-treatment (FDA-approved and GPCR libraries); assay type: cell-based; details: NEN 1.2 μM, 24 h, FDA-approved drug library and GPCR library
# Experimental: Plate and liquid handling was performed using a HTS platform system composed of a Sciclone G3 Liquid Handler from PerkinElmer (Waltham, MA, USA) with a Mitsubishi robotic arm (Mitsubishi Electric, RV-3511), a MultiFloTM Dispenser (Biotek Instruments, Bad Friedrichshall, Germany) as well as a CytomatTM Incubator (Thermo Fisher Scientific, Waltham, MA, USA). Cell seeding and assays were performed in black 384-well plates (Greiner bio one 384-well μCLEAR®, BLACK, 781091). The plates were coated with poly-D-lysine (Sigma-Aldrich, St. Louis, MA, USA) for 1 h at room temperature to facilitate a better cell adherence. Cells were seeded in 384-well microplates with a cell number of 12,000 cells/well. The signals of the MultiTox-Fluor assays were detected on the EnVision® Multilabel Reader (PerkinElmer, Waltham, MA, USA). The Prestwick Chemical library contains 1,280 small molecule compounds, which are 100% approved drugs (Food and Drug Administration (FDA), European Medicines Agency (EMA) and other agencies). The purity of the compounds was >90% as reported by the provider of the compounds. The GPCR compound library was purchased from MedChem Express (Cat. No.: HY-[…]). The Z' factor was calculated as described by Zhang and colleagues (Zhang, Chung et al., 1999). For screening of the FDA and GPCR small molecule libraries, HCT116 cells were washed with PBS, trypsinized, and resuspended in cell culture medium. The cell suspension (12,000 cells in 50 μl per well) was dispensed into poly-D-lysine pre-coated 384-well plates (Greiner bio one 384-well pCLEAR®, BLACK, 781091) and incubated at 37° C. with 5% CO2. 24 h after seeding, either 5 μl of NEN (negative control), NEN+Nutlin-3a (positive control), or DMSO alone (solvent control) dissolved in cell culture media were dispensed to the assay plate (NEN, final concentration: 1.2 μM; Nutlin-3a, final concentration: 25 μM). In addition, the same day cells were treated either with compound (1 mM stock solution) dissolved in 100% DMSO or DMSO alone. 0.5 μl of compounds/DMSO were transferred to 55 μl cell culture medium per well to keep the final DMSO volume concentration below 1.0%. The cells were then incubated (37° C.; 5% CO2) for 24 h prior to adding 50 μl MultiTox-Fluor Multiplex Cytotoxicity Assay reagent (Promega). Live-cell fluorescence (excitation=400 nm; emission=505 nm) and dead-cell fluorescence (excitation=485 nm; emission=520 nm) were recorded with an EnVision multilabel reader (PerkinElmer, Waltham, USA). The ratio for live/dead was calculated and normalized to the negative/vehicle control. For hit selection a threshold of lower than 3 standard deviations from the median of the negative/vehicle population was set.
# PDO-48 organoids = experiment: Paclitaxel sensitization in PDO-48 organoids; assay type: cell-based, human; details: triple combination with NEN and TCAs vs Paclitaxel alone
# Experimental: (§5) Primary patient-derived PDAC (Pancreatic ductal adenocarcinoma) three-dimensional (3D) organoids were generated from primary resected human PDAC surgical specimen according to the “Tuveson protocol” described in (Tiriac et al., 2018) and in the methods and extended methods sections of a publication by the group of Hans Clevers (Driehuis et al., 2019). Generation and culturing of primary-dispersed human PDAC cells was performed as recently described (Biederstadt et al., 2020). Written informed consent from the patients for research purposes was obtained prior to the investigation.
# as §2
# (§6) To investigate the efficacy of targeting the described metabolic stress response in a more heterogeneous cancer cell population, which better reflect the tumor biology, cultures of primary tumor-derived organoids from two patients with pancreatic cancer have been used. Organoids were seeded at a density of 1000 cells per well and let grow for 7 days prior to treatment.
# B42 organoids = experiment: Paclitaxel sensitization in B42 organoids; assay type: cell-based, human; details: triple combination with NEN and TCAs vs Paclitaxel alone
# Experimental: as §5, §2, §6
molecule,measurement,setting,value
O=C(COc1ccc(Cl)cc1)NC1CCC(NC(=O)COc2ccc(Cl)cc2)CC1 (centres unmarked) [ISRIB],attenuation of cell death induced by NEN drug combinations,HCT116 cells [1],attenuated cell death induction
same,effect on drug-induced UPP1 upregulation,UPP1,prevented the drug-induced UPP1 upregulation
same,attenuation of cell death induced by NEN drug combinations,"BxPC3 cells; BxPC3 monolayer, 48 h",attenuated cell death induction
same,"effect on drug-induced CHOP, Gadd34 and ATF4 expression","ATF4, CHOP and Gadd34; ISRIB 1 μM with NEN 1.2 μM + Domperidone 30 μM","prevented the induction of CHOP and of its target gene Gadd34, but did not decrease ATF4 expression significantly"
same,attenuation of cell death induced by NEN drug combinations,U87 cells,attenuated cell death induction
O=C(Nc1ccc([N+](=O)[O-])cc1Cl)c1cc(Cl)ccc1O [niclosamide],anti-tumor efficacy,[2],anti-tumor efficacy in a variety of preclinical tumor rodent models; also recorded: only minor therapeutic efficacy
Cyclodextrin [CD],attenuation of cell death induced by NEN drug combinations,HCT116 cells [1],CD concentration-dependent suppression of cell death
same,attenuation of cell death induced by NEN drug combinations,U87 cells,partially prevented cell death induction
"NCCO.O=C(Nc1ccc([N+](=O)[O-])cc1Cl)c1cc(Cl)ccc1O [NEN, niclosamide ethanolamine]",anti-tumor efficacy,[2],anti-tumor efficacy in a variety of preclinical tumor rodent models
same,cell death / toxicity (ratio of toxicity and viability),HCT116 cells [1],did not cause significant toxicity
same,cell death / toxicity (ratio of toxicity and viability),BxPC3 cells,did not cause significant toxicity
same,"ISR marker gene expression (ATF4, CHOP, Gadd34 mRNA)","ATF4, CHOP and Gadd34",modest increase in ISR marker gene expression
same,cell death / toxicity (ratio of toxicity and viability),U87 cells,did not cause significant toxicity
same,cell death (caspase activity) under low serum,HCT116 cells [3],caused significant cell death
"N#CC(C#N)=NNc1ccc(OC(F)(F)F)cc1 [FCCP, Carbonyl cyanide-p-trifluoromethoxyphenylhydrazone]",cell death / toxicity (ratio of toxicity and viability),HCT116 cells [1],did not cause significant toxicity
same,cell death / toxicity (ratio of toxicity and viability),BxPC3 cells,did not cause significant toxicity
same,cell death / toxicity (ratio of toxicity and viability),U87 cells,did not cause significant toxicity
"O=CC[C@@H](O)[C@H](O)[C@H](O)CO [2-DG, 2-deoxyglucose]",cell death / toxicity (ratio of toxicity and viability),HCT116 cells [1],but not 2-DG alone caused significant cell death
same,cell death / toxicity (ratio of toxicity and viability),BxPC3 cells,but not 2-DG alone caused significant cell death
same,cell death / toxicity (ratio of toxicity and viability),U87 cells,but not 2-DG alone caused significant cell death
CN(C)CCCN1c2ccccc2CCc2ccccc21 [Imipramine],efficacy in preclinical mouse models,[4],proven efficacy against glioblastoma and small-cell lung cancer (SCLC) in preclinical mouse models
same,water solubility,[5],higher water solubility
CN(C)CCCN1c2ccccc2CCc2ccc(Cl)cc21 [Clomipramine],hit in screen (cell death in NEN co-treated but not vehicle treated cells),HCT116 cells [6],represented with several compounds in both screens
CNCCCN1c2ccccc2CCc2ccccc21 [Desipramine],hit in screen (cell death in NEN co-treated but not vehicle treated cells),HCT116 cells [6],represented with several compounds in both screens
CC(CN(C)C)CN1c2ccccc2CCc2ccccc21 (centres unmarked) [Trimipramine],hit in screen (cell death in NEN co-treated but not vehicle treated cells),HCT116 cells [6],represented with several compounds in both screens
CC(=O)O[C@H]1C(=O)[C@@]2(C)[C@H]([C@H](OC(=O)c3ccccc3)[C@]3(O)C[C@H](OC(=O)[C@H](O)[C@@H](NC(=O)c4ccccc4)c4ccccc4)C(C)=C1C3(C)C)[C@]1(OC(C)=O)CO[C@@H]1C[C@@H]2O [Paclitaxel],increase in effectiveness in inducing organoid cell death,PDO-48 organoids,approximately ten
same,increase in effectiveness in inducing organoid cell death,B42 organoids,up to 100 times
O=c1[nH]c2ccccc2n1CCCN1CCC(n2c(=O)[nH]c3cc(Cl)ccc32)CC1 [Domperidone],"ISR marker gene expression (ATF4, CHOP, Gadd34 mRNA)","ATF4, CHOP and Gadd34",modest increase in ISR marker gene expression
same,hit in screen (cell death in NEN co-treated but not vehicle treated cells),HCT116 cells [6],scored as hit in both screens; also recorded: one of the top hits in both screens
